Data from ChEMBL document CHEMBL5724914, “Linking interpersonal differences in gut microbiota composition and drug biotransformation activity” (2024).

Legend:
[1] = human gut metagenome, 24 h, 2 µM
[2] = human gut metagenome, 24 h, 2 µM; remark: listed apart in the source
[3] = human gut metagenome, 24 h, 2 µM; remark: listed apart in the source
[4] = (§1) The drug is tested on WLS-082 corresponding to human gut metagenome with ENA study accession number: PRJEB37062 and ENA sample accession number: ERS12561751 for biotransformation under anaerobic condition. The drug concentrations were measured over 9 timepoints collected between 0 and 24 hours of incubation by liquid-chromatography-coupled mass spectrometry (LC–MS); conditions: 2 µM
[5] = human gut metagenome, 24 h, 2 µM; remark: listed apart in the source
[6] = as §1, with “WLS-086” for “WLS-082”, “ERS12561752” for “ERS12561751”; conditions: 2 µM
[7] = as §1, with “Z-018” for “WLS-082”, “pig” for “human”, “ERS12561817” for “ERS12561751”; conditions: 2 µM
[8] = as §1, with “Z-022” for “WLS-082”, “mouse” for “human”, “ERS12561821” for “ERS12561751”; conditions: 2 µM
[9] = as §1, with “WLS-077” for “WLS-082”, “ERS12561750” for “ERS12561751”; conditions: 2 µM
Also: call rule not given here.

Compound	Bacterial Biotransformation [1]	Bacterial Biotransformation [2]	Bacterial Biotransformation [3]	Bacterial Biotransformation [4]	Bacterial Biotransformation [5]	Bacterial Biotransformation [6]	Bacterial Biotransformation [7]	Bacterial Biotransformation [8]	Bacterial Biotransformation [9]
COc1cc2c(c(OC)c1OC)-c1ccc(OC)c(=O)cc1[C@@H](NC(C)=O)CC2 [COLCHICINE]	Compound NOT metabolized	Compound NOT metabolized	Compound NOT metabolized	Compound metabolized	Compound NOT metabolized	Compound NOT metabolized	Compound NOT metabolized	Compound metabolized	Compound metabolized
C=CCc1ccccc1OCC(O)CNC(C)C (stereo unspecified) [ALPRENOLOL]	Compound NOT metabolized	Compound NOT metabolized	Compound metabolized	Compound NOT metabolized	Compound NOT metabolized	Compound metabolized	Compound NOT metabolized	Compound metabolized	Compound NOT metabolized
CCOC(=O)[C@H](CCc1ccccc1)N[C@H]1CCc2ccccc2N(CC(=O)O)C1=O [BENAZEPRIL]	Compound NOT metabolized	Compound metabolized	Compound metabolized	Compound metabolized	Compound NOT metabolized	Compound metabolized	Compound metabolized	Compound metabolized	Compound metabolized
CN1C(=O)CC(C)(c2ccccc2)C1=O (stereo unspecified) [METHSUXIMIDE]	Compound NOT metabolized	Compound NOT metabolized	Compound NOT metabolized	Compound NOT metabolized	Compound NOT metabolized	Compound metabolized	Compound NOT metabolized	Compound metabolized	Compound NOT metabolized
CN1CCN(C2=Nc3cc(Cl)ccc3Nc3ccccc32)CC1 [CLOZAPINE]	Compound NOT metabolized	Compound NOT metabolized	Compound metabolized	Compound NOT metabolized	Compound NOT metabolized	Compound metabolized	Compound NOT metabolized	Compound NOT metabolized	Compound NOT metabolized
Clc1ccc(Cn2c(CN3CCCC3)nc3ccccc32)cc1 [CLEMIZOLE]	Compound NOT metabolized	Compound metabolized	Compound metabolized	Compound metabolized	Compound metabolized	Compound metabolized	Compound metabolized	Compound NOT metabolized	Compound NOT metabolized
O=C1[C@H](CC[C@H](O)c2ccc(F)cc2)[C@@H](c2ccc(O)cc2)N1c1ccc(F)cc1 [EZETIMIBE]	Compound NOT metabolized	Compound NOT metabolized	Compound NOT metabolized	Compound metabolized	Compound NOT metabolized	Compound metabolized	Compound NOT metabolized	Compound NOT metabolized	Compound metabolized
CNC(=C[N+](=O)[O-])NCCSCc1csc(CN(C)C)n1 [NIZATIDINE]	Compound metabolized	Compound NOT metabolized	Compound metabolized	Compound NOT metabolized	Compound NOT metabolized	Compound metabolized	Compound NOT metabolized	Compound metabolized	Compound NOT metabolized
OC(Cn1cncn1)(Cn1cncn1)c1ccc(F)cc1F [FLUCONAZOLE]	Compound NOT metabolized	Compound NOT metabolized	Compound NOT metabolized	Compound metabolized	Compound NOT metabolized	Compound metabolized	Compound NOT metabolized	Compound metabolized	Compound NOT metabolized
Nc1ccc(/N=N/c2ccccc2)c(N)n1 [PHENAZOPYRIDINE]	Compound metabolized	Compound metabolized	Compound metabolized	Compound metabolized	Compound metabolized	Compound metabolized	Compound metabolized	Compound metabolized	Compound metabolized
O=C(O)CCc1nc(-c2ccccc2)c(-c2ccccc2)o1 [OXAPROZIN]	Compound metabolized	Compound metabolized	Compound metabolized	Compound metabolized	Compound metabolized	Compound metabolized	Compound metabolized	Compound metabolized	Compound metabolized
Cc1ccc(-c2cc(C(F)(F)F)nn2-c2ccc(S(N)(=O)=O)cc2)cc1 [CELECOXIB]	Compound NOT metabolized	Compound NOT metabolized	Compound NOT metabolized	Compound metabolized	Compound NOT metabolized	Compound NOT metabolized	Compound NOT metabolized	Compound NOT metabolized	Compound metabolized
CCc1nc(N)nc(N)c1-c1ccc(Cl)cc1 [PYRIMETHAMINE]	Compound NOT metabolized	Compound NOT metabolized	Compound NOT metabolized	Compound NOT metabolized	Compound NOT metabolized	Compound metabolized	Compound NOT metabolized	Compound metabolized	Compound NOT metabolized
CN(C)CC(c1ccc(O)cc1)C1(O)CCCCC1.O=C(O)CCC(=O)O (stereo unspecified) [DESVENLAFAXINE SUCCINATE]	Compound NOT metabolized	Compound NOT metabolized	Compound NOT metabolized	Compound NOT metabolized	Compound NOT metabolized	Compound NOT metabolized	Compound NOT metabolized	Compound NOT metabolized	Compound NOT metabolized
CN1C(C(=O)Nc2ccccn2)=C(O)c2sccc2S1(=O)=O [TENOXICAM]	Compound NOT metabolized	Compound NOT metabolized	Compound NOT metabolized	Compound NOT metabolized	Compound NOT metabolized	Compound NOT metabolized	Compound NOT metabolized	Compound metabolized	Compound NOT metabolized
CCCc1nn(C)c2c(=O)[nH]c(-c3cc(S(=O)(=O)N4CCN(C)CC4)ccc3OCC)nc12.O=C(O)CC(O)(CC(=O)O)C(=O)O [SILDENAFIL CITRATE]	Compound NOT metabolized	Compound NOT metabolized	Compound NOT metabolized	Compound NOT metabolized	Compound NOT metabolized	Compound metabolized	Compound NOT metabolized	Compound metabolized	Compound NOT metabolized
CN1CCN(C(=O)O[C@H]2c3nccnc3C(=O)N2c2ccc(Cl)cn2)CC1 [ESZOPICLONE]	Compound NOT metabolized	Compound NOT metabolized	Compound NOT metabolized	Compound NOT metabolized	Compound NOT metabolized	Compound NOT metabolized	Compound NOT metabolized	Compound NOT metabolized	Compound NOT metabolized
OC(CCN1CCCCC1)(c1ccccc1)C1CCCCC1 (stereo unspecified) [TRIHEXYPHENIDYL]	Compound NOT metabolized	Compound NOT metabolized	Compound metabolized	Compound NOT metabolized	Compound metabolized	Compound metabolized	Compound metabolized	Compound metabolized	Compound metabolized
CCN(CC)CCNC(C(=O)OCCC(C)C)c1ccccc1.Cl.Cl (stereo unspecified)	Compound NOT metabolized	Compound metabolized	Compound metabolized	Compound metabolized	Compound NOT metabolized	Compound metabolized	Compound metabolized	Compound metabolized	Compound metabolized
